In patent US5714467A, “Antibacterial and antimalarial hybrid peptides” (The Rockefeller University, priority 1993, dated 1998):
Where no end group is shown, it is not given here.

Columns and labels:
[1] = test system: Bacillus subtilis Bs11; test: inhibition zone assay, lethal concentration; format: cell-based; conditions: for Lethal concentration, Bacillus subtilis Bs11 (Medium E): Table 2, Medium E; for Lethal concentration, Bs11 = B. subtilis: Table 3, agarose plates; for Lethal concentration, Bs11 = B. subtilis / Lethal concentration, Bs11 + ME = B. subtilis, plates prepared with medium E: overnight incubation at 30° C.; for Lethal concentration, Bs11 + ME = B. subtilis, plates prepared with medium E: Table 3, medium E, agarose plates
Protocol: (§1) The products of the invention were tested for activity against a variety of test organisms selected to represent a number of different types of pathogens some of them known to be particularly virulent by the inhibition zone assay of Hoffmann et al (1981) Insect Biochem. 11 537-548 which is incorporated herein by reference. Thin agar or agarose plates (8.5 cm diameter) were prepared with 6 ml of rich medium containing 100 ug/ml of streptomycin and 2×10^5 viable cells of a test organism resistant to streptomycin. Wells of […] diameter were punched in the plates and 3 ul of serially diluted samples were placed in the wells. The diameters of the zones of inhibition around the wells were measured after overnight incubation at 30° or 37° C. For each peptide the squares of the zone diameters were plotted against the logarithm of the concentration, and from the slopes and intercepts the lethal concentrations were calculated as described by Hultmark (1983) EMBO J. 2, 571-76 or Hultmark et al (1982) Eur. J. Biochem. 127 207-217 each of which being incorporated herein by reference.
(§2) It was observed during testing that basic peptides often bind to agar plates, but not so much to agarose. Therefore those lethal concentrations determined on agar may, in fact, be substantially higher than the actual lethal concentrations.
(§3) Novel peptides CA(1-8)M(1-18), CA(1-9)M(1-17), CB(1-13)M(1-13), CA(1-17)M(1-9), CA(1-18)M(1-8), M(1-13)CA(1-22) and M(1-13)CA(1-13) were prepared as described above (see Examples 1-6). These novel peptides and CA, CB, and M were tested for activity against a variety of organisms selected to represent a number of different types of pathogens, some of them known to be particularly virulent by the inhibition zone assay of Hoffmann et al (1981), Insect Biochem. 11 537-48. As in Examples 1-6, thin agarose plates were prepared with the respective organisms. The diameters of the zones of inhibition were measured after overnight incubation at 30° C. The lethal concentrations were determined as described above (see Examples 1-6; Hultmark et al articles cited thereat).

[2] = test system: Escherichia coli D21; test: inhibition zone assay, lethal concentration; format: cell-based; conditions: for Lethal concentration, D21 = E. coli: Table 3, agarose plates, overnight incubation at 30° C.
Protocol: as §1, §2, §3

[3] = test system: Pseudomonas aeruginosa OT97; test: inhibition zone assay, lethal concentration; format: cell-based; conditions: for Lethal concentration, OT97 = P. aeruginosa: Table 3, agarose plates, overnight incubation at 30° C.
Protocol: as §1, §2, §3

[4] = test system: Staphylococcus aureus Cowan I; test: inhibition zone assay, lethal concentration; format: cell-based; conditions: for Lethal concentration, Staphylococcus aureus Cowan I: Table 2, footnote a: incubation overnight at 30° C. as well as at 37° C.; for Lethal concentration, Staph = S. aureus Cowan I: Table 3, agarose plates, overnight incubation at 30° C.
Protocol: as §1, §2, §3

[5] = test system: Streptococcus pyogenes; test: inhibition zone assay, lethal concentration; format: cell-based; conditions: for Lethal concentration, Strep = S. pyogenes: Table 3, agarose plates, overnight incubation at 30° C.
Protocol: as §1, §2, §3

[6] = test system: Bacillus megaterium BM11; test: inhibition zone assay, lethal concentration; format: cell-based; conditions: Table 2, footnote c: incubation overnight at 37° C.
Protocol: as §1, §2

[7] = test system: Candida albicans; test: inhibition zone assay, lethal concentration; format: cell-based; conditions: Table 2, footnote c: incubation overnight at 37° C.
Protocol: as §1, §2

[8] = test system: Escherichia coli D22; test: inhibition zone assay, lethal concentration; format: cell-based; conditions: Table 2, footnote c: incubation overnight at 37° C.
Protocol: as §1, §2

[9] = test system: Micrococcus luteus Ml11; test: inhibition zone assay, lethal concentration; format: cell-based; conditions: Table 2, footnote c: incubation overnight at 37° C.
Protocol: as §1, §2

[10] = test system: Saccharomyces cerevisiae; test: inhibition zone assay, lethal concentration; format: cell-based; conditions: Table 2, footnote c: incubation overnight at 37° C.
Protocol: as §1, §2

[11] = test system: Staphylococcus haemolyticus; test: inhibition zone assay, lethal concentration; format: cell-based; conditions: Table 2, footnote c: incubation overnight at 37° C.
Protocol: as §1, §2

[12] = test system: Xenorhabdus nematophilis Xn21; test: inhibition zone assay, lethal concentration; format: cell-based; conditions: Table 2, footnote c: incubation overnight at 37° C.
Protocol: as §1, §2

[13] = test system: Sheep Red Cells; test: lysis of sheep red blood cells (lysis assay or SRC plate assay); format: cell-based; conditions: for Lethal concentration, SRC = Sheep Red Cells: Table 3
Protocol: These values were obtained by either the lysis assay normally used for melittin or by an adaptation of the antibacterial inhibition zone assay of the above-cited Hultmark et al articles to plates with sheep red cells (SRC). With respect to the latter, sterile agarose plates contained 6 ml of medium With 1% agarose, 0.9% NaCl and 10% SRC suspended in Alsevers solution. A dilution series of peptide was applied in 3 mm wells each loaded with 3 μl of the respective samples. The plates were incubated at 30° C. for 24 h, the zones were recorded and LC values calculated as described in the Hultmark et al articles. Clear zones were recorded after a few hours of incubation and the use of such data gave an LC value of the same order as readings after 24 h. This plate assay is faster and more convenient than the lysis assay normally used for melittin.

[14] = test system: Plasmodium falciparium strain F32 (Tanzania), blood stream forms; test: inhibition of reinvasion of human red cells by malaria parasite; format: cell-based, Plasmodium falciparum; conditions: for antimalarial potency in words: FIG. 1, blood stream form of Plasmodium falciparium; for IC50: Table 4, P. falciparum, read-out: 50% Reinvasion Inhibition
Protocol: Hybrid peptides CA(1-13)M(1-13) and CA(1-8)M(1-18) were prepared as described above (see Examples 1-6) and were assayed for activity against the blood stream form of Plasmodium falciparium. For comparison the test included cecropins A and B and the frog skin peptides magainin 2 and PGLa.
The blood stream forms of the malaria parasite Plasmodium falciparium, primarily late trophozoites and early schizonts, were assayed by recording the inhibition of the reinvasion of human red cells by the method of Wahlin, B., et al, (1984) Proc. Nat'l Acad. Sci. USA 81, 7912-16, incorporated herein by reference. Quadruplicate microcultures of strain F32 (Tanzania) were incubated for 20 hrs at 37° C. in a complete tissue culture medium, with or without different concentrations of the peptides to be assayed. After acridine orange staining, the percentage of newly infected red cells was scored in a fluorescence microscope. For each culture 40,000 red cells were analysed for parasitic infection. Duplicate assays were run for CA(1-13)M(1-13).

[15] = Table 2, footnote a: incubation overnight at 30° C. as well as at 37° C.
[16] = Table 2, footnote b: incubation overnight at 30° C.
[17] = Table 2, footnote c: incubation overnight at 37° C.

For “KWKLFKKIEKVGQNIRDGIIKAGPAVAVVGQATQIAK-NH2 [CA(1-37), Cecropin A]”, the “Lethal concentration, Bacillus subtilis Bs11 (Medium E)” value ([1]; footnote c: incubation overnight at 37° C.) was 200 µM, the “Lethal concentration, Bacillus subtilis Bs11” value [1, 15] was 4 µM and the “Lethal concentration, Bs11 = B. subtilis” value [1] was 4 µM. The “Lethal concentration, Bs11 + ME = B. subtilis, plates prepared with medium E” value [1] was 200 µM, the “Lethal concentration, Escherichia coli D21” value [2, 15] was 0.2 µM and the “Lethal concentration, D21 = E. coli” value [2] was 0.2 µM. The “Lethal concentration, Pseudomonas aeruginosa OT97” value [3, 16] was 2 µM, the “Lethal concentration, Pseudomonas aeruginosa OT97” value [3, 17] was 1.6 µM and the “Lethal concentration, OT97 = P. aeruginosa” value [3] was 2 µM. For the same compound, the “Lethal concentration, Staphylococcus aureus Cowan I” value [4] was > 200 µM, the “Lethal concentration, Staph = S. aureus Cowan I” value [4] was 200 µM and the “Lethal concentration, Streptococcus pyogenes” value [5, 16] was 4 µM. The “Lethal concentration, Streptococcus pyogenes” value [5, 17] was 6 µM, the “Lethal concentration, Strep = S. pyogenes” value [5] was 4 µM and the “Lethal concentration, Bacillus megaterium BM11” value [6] was 1 µM. The “Lethal concentration, Candida albicans” value [7] was > 200 µM, the “Lethal concentration, Escherichia coli D22” value [8] was 0.5 µM and the “Lethal concentration, Micrococcus luteus Ml11” value [9] was 1 µM. For the same compound, the “Lethal concentration, Saccharomyces cerevisiae” value [10] was 60 µM, the “Lethal concentration, Staphylococcus haemolyticus” value [11] was 3 µM and the “Lethal concentration, Xenorhabdus nematophilis Xn21” value [12] was 2 µM. The “Lethal concentration, Sheep Red Cells” value [13, 15] was > 200 µM, the “Lethal concentration, SRC = Sheep Red Cells” value [13] was 200 µM and the “antimalarial potency in words” value [14] was “negligible activity”.

In the case of “WNPFKELEKVGQRVRDAVISAGPAVATVAQATALAK-NH2 [CD(2-37), Cecropin D]”, the “Lethal concentration, Bacillus subtilis Bs11” value [1, 17] is reported as 100 µM, the “Lethal concentration, Escherichia coli D21” value [2, 17] is reported as 3.6 µM and the “Lethal concentration, Pseudomonas aeruginosa OT97” value [3, 17] is reported as 90 µM. For the same compound, the “Lethal concentration, Bacillus megaterium BM11” value [6] was 30 µM, the “Lethal concentration, Escherichia coli D22” value [8] was 0.6 µM and the “Lethal concentration, Micrococcus luteus Ml11” value [9] was 12 µM.

PGLa [PGL^a] was tested, and the “antimalarial potency in words” value [14] was “intermediate activity” and the IC50 [14] was 40 µM.

Cecropin P-1 was tested, and the IC50 [14] was 90 µM.

For `CC[C@H](C)[C@H](NC(=O)CN)C(=O)NCC(=O)N[C@@H](C)C(=O)N[C@H](C(=O)N[C@@H](CC(C)C)C(=O)N[C@@H](CCCCN)C(=O)N[C@H](C(=O)N[C@@H](CC(C)C)C(=O)N[C@H](C(=O)N[C@H](C(=O)NCC(=O)N[C@@H](CC(C)C)C(=O)N1CCC[C@H]1C(=O)N[C@@H](C)C(=O)N[C@@H](CC(C)C)C(=O)N[C@H](C(=O)N[C@@H](CO)C(=O)N[C@@H](Cc1c[nH]c2ccccc12)C(=O)N[C@H](C(=O)N[C@@H](CCCCN)C(=O)N[C@@H](CCCNC(=N)N)C(=O)N[C@@H](CCCCN)C(=O)N[C@@H](CCCNC(=N)N)C(=O)N[C@@H](CCC(N)=O)C(=O)N[C@@H](CCC(N)=O)C(N)=O)[C@@H](C)CC)[C@@H](C)CC)[C@@H](C)O)[C@@H](C)O)C(C)C)C(C)C` [M(1-26), Melittin], the “Lethal concentration, Bacillus subtilis Bs11 (Medium E)” value ([1]; no incubation footnote) was 0.3 µM, the “Lethal concentration, Bacillus subtilis Bs11” value [1, 15] was 0.2 µM and the “Lethal concentration, Bs11 = B. subtilis” value [1] was 0.2 µM. For the same compound, the “Lethal concentration, Bs11 + ME = B. subtilis, plates prepared with medium E” value [1] was 0.3 µM, the “Lethal concentration, Escherichia coli D21” value [2, 15] was 0.8 µM and the “Lethal concentration, D21 = E. coli” value [2] was 0.8 µM. The “Lethal concentration, Pseudomonas aeruginosa OT97” value [3, 15] was 3 µM, the “Lethal concentration, OT97 = P. aeruginosa” value [3] was 3 µM and the “Lethal concentration, Staphylococcus aureus Cowan I” value [4] was 0.2 µM. The “Lethal concentration, Staph = S. aureus Cowan I” value [4] was 0.2 µM, the “Lethal concentration, Streptococcus pyogenes” value [5, 15] was 0.5 µM and the “Lethal concentration, Strep = S. pyogenes” value [5] was 0.5 µM. For the same compound, the “Lethal concentration, Candida albicans” value [7] was 150 µM, the “Lethal concentration, Saccharomyces cerevisiae” value [10] was 10 µM and the “Lethal concentration, Staphylococcus haemolyticus” value [11] was 0.3 µM. For the same compound, the “Lethal concentration, Xenorhabdus nematophilis Xn21” value [12] was 9 to 50 µM, the “Lethal concentration, Sheep Red Cells” value [13, 16] was 4 to 8 µM and the “Lethal concentration, Sheep Red Cells” value [13, 17] was 4 to 6 µM. For the same compound, the “Lethal concentration, SRC = Sheep Red Cells” value [13] was 4 to 8 µM.

“KWKVFKKIEKMGRNIRNGIVKAGPAIAVLGEAKAL-NH2 [CB(1-35), Cecropin B]” was tested, and the “Lethal concentration, D21 = E. coli” value [2] was 0.3 µM, the “Lethal concentration, OT97 = P. aeruginosa” value [3] was 1 µM and the “Lethal concentration, Staph = S. aureus Cowan I” value [4] was 200 µM. For the same compound, the “Lethal concentration, Strep = S. pyogenes” value [5] was 12 µM, the “antimalarial potency in words” value [14] was “about as potent as Mag” and the IC50 [14] was 110 µM.

magainin 2 was tested, and the IC50 [14] was 80 µM.
